From the CheMixHub viscosity set
± gives the uncertainty stated by the source.

Assay: xn = mol fraction of the nth substance listed

OCC(O)CO + CCO
298.15 K, 101 kPa
Conditions	viscosity [mPa·s]
x1 = 0.053	1.52 ± 0.02
x1 = 0.11	2.23 ± 0.03
x1 = 0.18	3.49 ± 0.05
x1 = 0.25	5.83 ± 0.08
x1 = 0.33	10.4 ± 0.16
x1 = 0.43	20.6 ± 0.36
x1 = 0.54	45.3 ± 1
x1 = 0.67	103.3 ± 3.6
x1 = 0.82	254 ± 15

CCOc1ccccc1 + CCCCCCCCCO
viscosity [mPa·s], 101.3 kPa
Conditions	x1 = 0.1012	x1 = 0.2001	x1 = 0.3006	x1 = 0.4009	x1 = 0.5013	x1 = 0.6023	x1 = 0.7018	x1 = 0.8005	x1 = 0.8997
293.15 K	8.86 ± 0.19	6.725 ± 0.14	5.095 ± 0.11	3.858 ± 0.089	2.948 ± 0.072	2.293 ± 0.059	1.853 ± 0.051	1.578 ± 0.045	1.424 ± 0.043
298.15 K	7.33 ± 0.16	5.611 ± 0.12	4.298 ± 0.098	3.299 ± 0.079	2.57 ± 0.065	2.039 ± 0.054	1.692 ± 0.048	1.488 ± 0.08	1.361 ± 0.1
308.15 K	5.241 ± 0.12	4.17 ± 0.095	3.295 ± 0.079	2.614 ± 0.065	2.089 ± 0.055	1.697 ± 0.048	1.394 ± 0.042	1.17 ± 0.038	1.023 ± 0.035
318.15 K	3.906 ± 0.09	3.16 ± 0.076	2.525 ± 0.064	2.033 ± 0.054	1.654 ± 0.047	1.371 ± 0.042	1.152 ± 0.037	0.9714 ± 0.034	0.8556 ± 0.032

CCOc1ccccc1 + CCCCCCCCO
viscosity [mPa·s], 101.3 kPa
Conditions	x1 = 0.1001	x1 = 0.1976	x1 = 0.2997	x1 = 0.4014	x1 = 0.4996	x1 = 0.6027	x1 = 0.7022	x1 = 0.8015	x1 = 0.9016
293.15 K	6.96 ± 0.15	5.353 ± 0.12	4.171 ± 0.095	3.317 ± 0.079	2.691 ± 0.067	2.194 ± 0.057	1.86 ± 0.051	1.63 ± 0.046	1.491 ± 0.044
298.15 K	5.929 ± 0.13	4.669 ± 0.1	3.644 ± 0.085	2.894 ± 0.071	2.361 ± 0.061	1.947 ± 0.053	1.68 ± 0.048	1.502 ± 0.044	1.36 ± 0.041
308.15 K	4.308 ± 0.098	3.441 ± 0.081	2.698 ± 0.067	2.152 ± 0.056	1.742 ± 0.049	1.436 ± 0.043	1.234 ± 0.039	1.111 ± 0.037	1.042 ± 0.035
318.15 K	3.31 ± 0.079	2.701 ± 0.067	2.153 ± 0.057	1.7 ± 0.048	1.386 ± 0.042	1.143 ± 0.037	0.9913 ± 0.034	0.9148 ± 0.033	0.8795 ± 0.032

CCOC(C)=O + CCCO
viscosity [mPa·s], 101 kPa
Conditions	298.15 K	313.15 K
x1 = 0.046	1.597 ± 0.015	1.158 ± 0.011
x1 = 0.0998	1.337 ± 0.012	0.987 ± 0.009
x1 = 0.1992	1.007 ± 0.009	–
x1 = 0.2966	0.802 ± 0.008	–
x1 = 0.4052	0.694 ± 0.007	–
x1 = 0.5009	0.601 ± 0.006	–
x1 = 0.5421	0.576 ± 0.006	0.482 ± 0.005
x1 = 0.5948	0.558 ± 0.006	0.466 ± 0.005
x1 = 0.7034	0.509 ± 0.005	–
x1 = 0.7964	0.475 ± 0.005	–
x1 = 0.9033	0.448 ± 0.005	–
x1 = 0.9542	0.45 ± 0.005	–

CCOc1ccccc1 + CC1COC(=O)O1
viscosity [mPa·s], 101.33 kPa
Conditions	x2 = 0.1218	x2 = 0.2226	x2 = 0.3591	x2 = 0.4874	x2 = 0.5257	x2 = 0.5674	x2 = 0.6723	x2 = 0.7807	x2 = 0.8898	x2 = 0.9431
293.15 K	1.338 ± 0.015	1.436 ± 0.016	1.586 ± 0.018	1.739 ± 0.02	1.789 ± 0.02	1.837 ± 0.021	1.985 ± 0.023	2.17 ± 0.025	2.405 ± 0.027	2.544 ± 0.029
303.15 K	1.119 ± 0.013	1.202 ± 0.014	1.316 ± 0.015	1.44 ± 0.016	1.474 ± 0.017	1.516 ± 0.017	1.63 ± 0.019	1.773 ± 0.02	1.96 ± 0.022	2.078 ± 0.024
313.15 K	0.945 ± 0.011	1.013 ± 0.012	1.11 ± 0.013	1.215 ± 0.014	1.246 ± 0.014	1.278 ± 0.015	1.373 ± 0.016	1.495 ± 0.017	1.651 ± 0.019	1.742 ± 0.02

COC(=O)CC(C)=O + CCCCCCC(C)O
viscosity [mPa·s], 101.3 kPa
Conditions	x1 = 0.1041	x1 = 0.2072	x1 = 0.3091	x1 = 0.4101	x1 = 0.5107	x1 = 0.6079	x1 = 0.7081	x1 = 0.807	x1 = 0.9036
298.15 K	4.231 ± 0.1	3.315 ± 0.08	2.753 ± 0.066	2.358 ± 0.057	2.075 ± 0.05	1.9 ± 0.046	1.699 ± 0.041	1.574 ± 0.038	1.52 ± 0.037
303.15 K	3.511 ± 0.084	2.796 ± 0.067	2.344 ± 0.057	2.026 ± 0.049	1.796 ± 0.044	1.661 ± 0.041	1.506 ± 0.037	1.413 ± 0.035	1.374 ± 0.034
308.15 K	2.939 ± 0.07	2.377 ± 0.057	2.015 ± 0.049	1.756 ± 0.043	1.567 ± 0.038	1.476 ± 0.036	1.352 ± 0.033	1.279 ± 0.032	1.251 ± 0.031

COc1ccc(C=O)cc1 + Cc1cc(C)cc(C)c1
viscosity [mPa·s], 101 kPa
Conditions	x1 = 0.1142	x1 = 0.2248	x1 = 0.3321	x1 = 0.4361	x1 = 0.537	x1 = 0.635	x1 = 0.7302	x1 = 0.8227	x1 = 0.9126
303.15 K	0.686 ± 0.19	0.766 ± 0.2	0.825 ± 0.22	1.044 ± 0.26	1.283 ± 0.32	1.581 ± 0.38	1.77 ± 0.42	2.826 ± 0.66	2.963 ± 0.68
308.15 K	0.645 ± 0.18	0.713 ± 0.19	0.7707 ± 0.2	0.96 ± 0.25	1.148 ± 0.29	1.395 ± 0.34	1.582 ± 0.38	2.452 ± 0.57	2.665 ± 0.62
313.15 K	0.438 ± 0.13	0.487 ± 0.14	0.547 ± 0.15	0.676 ± 0.18	0.825 ± 0.22	1 ± 0.26	1.094 ± 0.28	1.859 ± 0.44	1.969 ± 0.47
318.15 K	0.392 ± 0.12	0.435 ± 0.13	0.5 ± 0.14	0.614 ± 0.17	0.733 ± 0.2	0.9 ± 0.23	1 ± 0.25	1.517 ± 0.37	1.713 ± 0.41

Clc1cccc(Cl)c1 + CCNc1ccccc1
viscosity [mPa·s], 101 kPa
Conditions	303.15 K	308.15 K
x2 = 0.0725	1.021 ± 0.012	0.954 ± 0.012
x2 = 0.1256	1.069 ± 0.012	0.996 ± 0.012
x2 = 0.1956	1.134 ± 0.013	1.051 ± 0.012
x2 = 0.2687	1.2 ± 0.013	1.108 ± 0.013
x2 = 0.3369	1.258 ± 0.013	1.157 ± 0.013
x2 = 0.4056	1.315 ± 0.013	1.205 ± 0.013
x2 = 0.4856	1.38 ± 0.014	1.259 ± 0.013
x2 = 0.5598	1.437 ± 0.014	1.308 ± 0.014
x2 = 0.6235	1.485 ± 0.014	1.347 ± 0.014
x2 = 0.6925	1.536 ± 0.015	1.389 ± 0.014
x2 = 0.7759	1.594 ± 0.015	1.436 ± 0.015
x2 = 0.8596	1.651 ± 0.016	1.482 ± 0.015
x2 = 0.9125	1.687 ± 0.016	1.511 ± 0.015

CCOc1ccccc1 + CCCCCO
viscosity [mPa·s], 101.3 kPa
Conditions	x1 = 0.0998	x1 = 0.1989	x1 = 0.3012	x1 = 0.3999	x1 = 0.5004	x1 = 0.6001	x1 = 0.7013	x1 = 0.7997	x1 = 0.9021
293.15 K	3.281 ± 0.078	2.682 ± 0.067	2.196 ± 0.057	1.866 ± 0.051	1.631 ± 0.046	1.494 ± 0.044	1.42 ± 0.043	1.379 ± 0.042	1.371 ± 0.042
298.15 K	2.882 ± 0.071	2.372 ± 0.061	1.953 ± 0.053	1.646 ± 0.047	1.423 ± 0.043	1.299 ± 0.04	1.245 ± 0.039	1.232 ± 0.039	1.228 ± 0.039
308.15 K	2.152 ± 0.056	1.785 ± 0.049	1.486 ± 0.044	1.256 ± 0.039	1.121 ± 0.037	1.032 ± 0.035	0.9978 ± 0.034	0.9914 ± 0.034	0.9892 ± 0.034
318.15 K	1.691 ± 0.048	1.381 ± 0.042	1.155 ± 0.037	1.01 ± 0.035	0.9175 ± 0.033	0.8405 ± 0.031	0.8318 ± 0.031	0.8317 ± 0.031	0.8269 ± 0.031
